Measured values published in patent publication US20120291159A1, “Azoline Compounds for Combating Invertebrate Pests” (BASF SE, priority 2009, published 2012).
Structures can show the parent of a compound that is named as a salt.

Tests used:
Format in all cases: in vivo
[1] = tested on: Orchid Thrips (Dichromothrips corbetti); assay: Orchid thrips floral-immersion test (B.5); conditions: 500 ppm, adult thrips, after 4 days
Description: B.5 Orchid Thrips (Dichromothrips corbetti)
Dichromothrips corbetti adults used for bioassay are obtained from a colony maintained continuously under laboratory conditions. […]
Thrips potency of each compound is evaluated by using a floral-immersion technique. Plastic petri dishes are used as test arenas. All petals of individual, intact orchid flowers are dipped into treatment solution and allowed to dry. Treated flowers are placed into individual petri dishes along with 10-15 adult thrips. The petri dishes are then covered with lids. All test arenas are held under continuous light and a temperature of about 28° C. for duration of the assay. After 4 days, the numbers of live thrips are counted on each flower, and along inner walls of each petri dish. The level of thrips mortality is extrapolated from pre-treatment thrips numbers.

[2] = tested on: Mediterranean Fruitfly (Ceratitis capitata); assay: Mediterranean fruitfly microtiter diet test (B.4); conditions: 120 h, egg and larval mortality after 5 days, read-out: mortality in comparison with untreated controls
Description: B.4 Mediterranean Fruitfly (Ceratitis capitata)
For evaluating control of Mediterranean fruitfly (Ceratitis capitata) the test unit consisted of microtiter plates containing an insect diet and 50-80 C. capitata eggs. The compounds were formulated using a solution containing 75% v/v water and 25% v/v DMSO. Different concentrations of formulated compounds were sprayed onto the insect diet at 5 μl, using a custom built micro atomizer, at two replications. After application, microtiter plates were incubated at about 28±1° C. and about 80±5% relative humidity for 5 days. Egg and larval mortality was then visually assessed.

[3] = tested on: Vetch Aphid (Megoura viciae); assay: Vetch aphid leaf disk microtiter test (B.9); conditions: foliar, 120 h, adult aphids on broad bean leaf disks, 5 days, read-out: mortality in comparison with untreated controls
Description: B.9 Vetch Aphid (Megoura viciae)
For evaluating control of vetch aphid (Megoura viciae) through contact or systemic means the test unit consisted of 24-well-microtiter plates containing broad bean leaf disks.
The compounds were formulated using a solution containing 75% v/v water and 25% v/v DMSO. Different concentrations of formulated compounds were sprayed onto the leaf disks at 2.5 μl, using a custom built micro atomizer, at two replications.
After application, the leaf disks were air-dried and 5-8 adult aphids placed on the leaf disks inside the microtiter plate wells. The aphids were then allowed to suck on the treated leaf disks and incubated at about 23±1° C. and about 50±5% relative humidity for 5 days. Aphid mortality and fecundity was then visually assessed.

[4] = tested on: Boll Weevil (Anthonomus grandis); assay: Boll weevil microtiter diet test (B.11); conditions: 120 h, egg and larval mortality after 5 days, read-out: mortality in comparison with untreated controls
Description: B.11 Boll Weevil (Anthonomus grandis)
For evaluating control of boll weevil (Anthonomus grandis) the test unit consisted of 24-well-microtiter plates containing an insect diet and 20-30 A. grandis eggs.
The compounds were formulated using a solution containing 75% v/v water and 25% v/v DMSO. Different concentrations of formulated compounds were sprayed onto the insect diet at 20 μl, using a custom built micro atomizer, at two replications.
After application, microtiter plates were incubated at about 23±1° C. and about 50±5% relative humidity for 5 days. Egg and larval mortality was then visually assessed.

[5] = tested on: Silverleaf Whitefly (Bemisia argentifoli); assay: Silverleaf whitefly cotton plant spray test (B.6); conditions: 300 ppm; whitefly adults on sprayed cotton, 3 days after treatment
Source text: B.6 Silverleaf Whitefly (Bemisia argentifoli)
(§1) The active compounds were formulated in cyclohexanone as a 10,000 ppm solution supplied in tubes. The tubes were inserted into an automated electrostatic sprayer equipped with an atomizing nozzle and they served as stock solutions for which lower dilutions were made in 50% acetone:50% water (v/v). A nonionic surfactant (Kinetic®) was included in the solution at a volume of 0.01% (v/v).
Cotton plants at the cotyledon stage (one plant per pot) were sprayed by an automated electrostatic plant sprayer equipped with an atomizing spray nozzle. The plants were dried in the sprayer fume hood and then removed from the sprayer. Each pot was placed into a plastic cup and about 10 to 12 whitefly adults (approximately 3-5 days old) were introduced. The insects were collected using an aspirator and a nontoxic Tygon® tubing connected to a barrier pipette tip. The tip, containing the collected insects, was then gently inserted into the soil containing the treated plant, allowing insects to crawl out of the tip to reach the foliage for feeding. Cups were covered with a reusable screened lid. […] Mortality was assessed 3 days after treatment, compared to untreated control plants.

[6] = tested on: Cowpea Aphid (Aphis craccivora); assay: Cowpea aphid spray test on potted cowpea plants (B.2); conditions: 100 ppm; sprayed cowpea plants; assessed after 24, 72 and 120 hours
Description: If not otherwise specified the test solutions were prepared as follow:
The active compound was dissolved at the desired concentration in a mixture of 1:1 (vol:vol) distilled water:acteon. The test solution was prepared the day it was used and in general at concentrations of […] (wt/vol).
B.2 Cowpea Aphid (Aphis craccivora)
Potted cowpea plants colonized with approximately 100-150 aphids of various stages were sprayed after the pest population has been recorded. Population reduction was assessed after 24, 72, and 120 hours.

[7] = tested on: Tobacco Budworm (Heliothis virescens); assay: Tobacco budworm cotton plant spray test (B.10); conditions: 2500 ppm; larvae on sprayed cotton, 4 days after treatment
Description: B.10 Tobacco Budworm (Heliothis virescens) I
as §1
Cotton plants were grown 2 plants to a pot and selected for treatment at the cotyledon stage. Test solutions were sprayed onto the foliage by an automated electrostatic plant sprayer equipped with an atomizing spray nozzle. The plants were dried in the sprayer fume hood and then removed from the sprayer. Each pot was placed into perforated plastic bags with a zip closure. About 10 to 11 budworm larvae were placed into the bag and the bags zipped closed. Test plants were maintained in a growth room at about 25° C. and about 20-40% relative humidity for 4 days, avoiding direct exposure to fluorescent light (24 hour photoperiod) to prevent trapping of heat inside the bags. Mortality and reduced feeding were assessed 4 days after treatment, compared to untreated control plants.

Row | SMILES | mortality at 2500 ppm [2] [%] | mortality at 2500 ppm [3] [%] | mortality at 2500 ppm [4] [%] | also measured
1 | O=C(NCC(F)(F)F)c1cc(C2=NOC(c3cc(Cl)cc(Cl)c3)(C(F)(F)F)C2)ccn1 (centres unmarked) [compound 2-3] |  |  |  | mortality in comparison with untreated controls [1]: at least 75%
2 | NCc1cccc(C2=NOC(c3cc(Cl)cc(Cl)c3)(C(F)(F)F)C2)c1 (centres unmarked) [compound 3-1, 3-[5-(3,5-dichloro-phenyl)-5-trifluoromethyl-4,5-dihydro-isoxazol-3-yl]-benzylamine hydrochloride] | ≥ 75 | ≥ 75 | ≥ 75 | 
3 | CCC(=O)NCc1cccc(C2=NOC(c3cc(Cl)cc(Cl)c3)(C(F)(F)F)C2)c1 (centres unmarked) [compound 3-2, N-{3-[5-(3,5-dichloro-phenyl)-5-trifluoromethyl-4,5-dihydro-isoxazol-3-yl]-benzyl}-propionamide] | ≥ 75 | ≥ 75 | ≥ 75 | 
4 | CC(=O)NCc1cccc(C2=NOC(c3cc(Cl)cc(Cl)c3)(C(F)(F)F)C2)c1 (centres unmarked) [compound 3-3, N-{3-[5-(3,5-dichloro-phenyl)-5-trifluoromethyl-4,5-dihydro-isoxazol-3-yl]-benzyl}-acetamide] | ≥ 75 | ≥ 75 | ≥ 75 | 
5 | CSCC(=O)NCc1cccc(C2=NOC(c3cc(Cl)cc(Cl)c3)(C(F)(F)F)C2)c1 (centres unmarked) [compound 3-4, N-{3-[5-(3,5-dichloro-phenyl)-5-trifluoromethyl-4,5-dihydro-isoxazol-3-yl]-benzyl}-2-methylsulfanyl-acetamide] | ≥ 75 |  |  | 
6 | CCCC(=O)NCc1cccc(C2=NOC(c3cc(Cl)cc(Cl)c3)(C(F)(F)F)C2)c1 (centres unmarked) [compound 3-5, N-{3-[5-(3,5-dichloro-phenyl)-5-trifluoromethyl-4,5-dihydro-isoxazol-3-yl]-benzyl}-butyramide] | ≥ 75 | ≥ 75 | ≥ 75 | 
7 | CCCC(=O)OCc1cccc(C2=NOC(c3cc(Cl)cc(Cl)c3)(C(F)(F)F)C2)c1 (centres unmarked) [compound 3-9] |  |  |  | mortality in comparison with untreated controls [5]: at least 75%
8 | CN1CCC(Oc2cccc(C3=NOC(c4cc(Cl)cc(Cl)c4)(C(F)(F)F)C3)c2)C1=O (centres unmarked) [compound 5-1] |  |  |  | mortality in comparison with untreated controls [6]: at least 75%
9 | [O-][S+](c1cccc(C2=NOC(c3cc(Cl)cc(Cl)c3)(C(F)(F)F)C2)c1)C(F)(F)F (centres unmarked) [compound 6-2] |  |  |  | mortality in comparison with untreated controls [7]: at least 75%
